Experimental data: ChEMBL document CHEMBL4229327, “Chemical Approaches to Modulating Complement-Mediated Diseases” (J Med Chem, 2018)
Values belong to the compound of their own block, whether it stands above or below them. Peptide text beside a SMILES is read from it.

What was measured:
Complement C3 = Complement C3 (Homo sapiens, UniProt P01024); experiment: Inhibition of C3 in human serum by ELISA
[1] = biological target: T1, C3a anaphylatoxin chemotactic receptor (Homo sapiens, UniProt Q16581); experiment: Displacement of 125I-C3a from recombinant human C3aR expressed in HEK293 cell membranes after 3 hrs by scintillation proximity assay
T1 sequence (Q16581 whole entry): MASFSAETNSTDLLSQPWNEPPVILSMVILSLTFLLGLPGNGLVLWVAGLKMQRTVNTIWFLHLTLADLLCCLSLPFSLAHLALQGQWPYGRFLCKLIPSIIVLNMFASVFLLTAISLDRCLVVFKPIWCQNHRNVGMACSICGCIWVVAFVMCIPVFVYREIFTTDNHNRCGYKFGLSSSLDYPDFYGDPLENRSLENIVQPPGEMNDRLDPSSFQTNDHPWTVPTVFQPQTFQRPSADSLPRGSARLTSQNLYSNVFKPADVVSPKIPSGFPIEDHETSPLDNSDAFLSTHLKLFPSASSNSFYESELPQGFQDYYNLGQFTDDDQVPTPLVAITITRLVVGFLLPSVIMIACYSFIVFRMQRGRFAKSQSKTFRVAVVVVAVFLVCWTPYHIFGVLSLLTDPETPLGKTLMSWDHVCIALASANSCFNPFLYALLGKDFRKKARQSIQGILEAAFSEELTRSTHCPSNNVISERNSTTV

[2] = biological target: T2, Mannan-binding lectin serine protease 2 (Homo sapiens, UniProt O00187); experiment: Inhibition of MASP-2-mediated C4 deposition in human serum after 1 hr by ELISA
T2 sequence (O00187 16-444 limits assumed): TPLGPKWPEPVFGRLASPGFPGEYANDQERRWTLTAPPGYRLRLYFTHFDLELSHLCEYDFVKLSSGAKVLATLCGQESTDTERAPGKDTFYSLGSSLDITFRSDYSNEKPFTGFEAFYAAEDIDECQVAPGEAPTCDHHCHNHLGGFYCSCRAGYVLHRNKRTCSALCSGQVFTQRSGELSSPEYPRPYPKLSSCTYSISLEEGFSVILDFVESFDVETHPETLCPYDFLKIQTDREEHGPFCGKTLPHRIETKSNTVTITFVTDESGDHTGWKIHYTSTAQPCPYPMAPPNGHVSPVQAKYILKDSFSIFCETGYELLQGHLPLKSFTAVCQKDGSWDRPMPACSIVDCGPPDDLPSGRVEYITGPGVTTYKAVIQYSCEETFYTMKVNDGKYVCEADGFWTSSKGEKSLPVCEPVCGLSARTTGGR
T2 sequence (O00187 445-686 limits assumed): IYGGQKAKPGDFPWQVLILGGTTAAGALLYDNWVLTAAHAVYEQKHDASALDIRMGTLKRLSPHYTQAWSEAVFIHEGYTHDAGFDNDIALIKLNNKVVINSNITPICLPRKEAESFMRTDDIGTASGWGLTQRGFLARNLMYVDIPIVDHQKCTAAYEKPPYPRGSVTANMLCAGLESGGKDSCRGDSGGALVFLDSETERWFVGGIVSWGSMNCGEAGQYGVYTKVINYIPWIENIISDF

[3] = biological target: T2, Mannan-binding lectin serine protease 2; experiment: Inhibition of MASP-2 (unknown origin) using Z-L-LysSBzl hydrochloride as substrate preincubated for 1 hr followed by substrate addition
[4] = biological target: T3, Mannan-binding lectin serine protease 1 (Homo sapiens, UniProt P48740); experiment: Inhibition of MASP-1-mediated C3 deposition in human serum after 30 mins by ELISA
T3 sequence (P48740 whole entry): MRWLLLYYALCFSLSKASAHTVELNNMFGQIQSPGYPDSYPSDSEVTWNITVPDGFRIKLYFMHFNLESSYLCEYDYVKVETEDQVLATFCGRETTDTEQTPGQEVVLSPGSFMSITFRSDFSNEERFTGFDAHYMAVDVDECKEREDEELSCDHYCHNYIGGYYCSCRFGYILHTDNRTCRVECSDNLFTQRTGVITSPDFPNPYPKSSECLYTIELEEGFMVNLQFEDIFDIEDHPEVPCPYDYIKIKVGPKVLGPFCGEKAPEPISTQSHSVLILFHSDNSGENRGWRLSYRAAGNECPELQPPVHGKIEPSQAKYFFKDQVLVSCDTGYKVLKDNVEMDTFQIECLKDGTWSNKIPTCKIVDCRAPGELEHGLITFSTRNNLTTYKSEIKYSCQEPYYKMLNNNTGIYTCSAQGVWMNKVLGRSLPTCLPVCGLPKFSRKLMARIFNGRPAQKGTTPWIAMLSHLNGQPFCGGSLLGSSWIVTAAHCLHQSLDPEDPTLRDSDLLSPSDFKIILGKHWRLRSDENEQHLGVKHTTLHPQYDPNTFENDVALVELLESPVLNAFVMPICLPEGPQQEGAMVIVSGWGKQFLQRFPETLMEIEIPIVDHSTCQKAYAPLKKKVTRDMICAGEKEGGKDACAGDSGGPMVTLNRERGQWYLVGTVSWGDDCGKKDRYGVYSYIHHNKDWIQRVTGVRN

Integrin alpha-M/beta-2 [5] = biological target: T4, Integrin alpha-M/beta-2 (Homo sapiens, UniProt P05107+P11215); experiment: Inhibition of C3bi-AP binding to CR3 derived from human PMN; type: protein-complex assay
T4 sequence (P05107 23-769 limits assumed, other chains not shown): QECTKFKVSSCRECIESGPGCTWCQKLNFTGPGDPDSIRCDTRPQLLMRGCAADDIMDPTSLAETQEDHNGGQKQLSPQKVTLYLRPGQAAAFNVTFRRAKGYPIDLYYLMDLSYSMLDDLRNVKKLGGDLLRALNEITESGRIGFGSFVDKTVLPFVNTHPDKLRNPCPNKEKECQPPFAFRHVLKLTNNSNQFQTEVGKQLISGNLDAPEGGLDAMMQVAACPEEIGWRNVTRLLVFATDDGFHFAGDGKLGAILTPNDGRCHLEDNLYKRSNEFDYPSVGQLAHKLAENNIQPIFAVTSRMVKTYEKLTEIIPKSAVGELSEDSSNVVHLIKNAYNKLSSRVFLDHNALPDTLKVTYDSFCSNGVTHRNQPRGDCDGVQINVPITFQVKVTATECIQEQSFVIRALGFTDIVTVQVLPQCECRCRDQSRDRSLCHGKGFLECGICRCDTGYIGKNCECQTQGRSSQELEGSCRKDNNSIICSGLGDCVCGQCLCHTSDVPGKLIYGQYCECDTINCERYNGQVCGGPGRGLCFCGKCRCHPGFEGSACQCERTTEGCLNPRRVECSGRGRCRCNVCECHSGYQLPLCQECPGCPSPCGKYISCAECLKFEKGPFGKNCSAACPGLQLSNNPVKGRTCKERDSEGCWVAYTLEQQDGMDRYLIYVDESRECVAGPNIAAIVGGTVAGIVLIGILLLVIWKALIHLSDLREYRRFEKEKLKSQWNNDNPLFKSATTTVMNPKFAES

Integrin alpha-M/beta-2 [6] = biological target: T4, Integrin alpha-M/beta-2; experiment: Antagonist activity at CR3 in carboxyfluorescein diacetate succiminidyl ester-labeled human PMN assessed as inhibition of TNF/PMA-stimulated adhesion of PMN to fibrinogen preincubated for 10 mins followed by TNF/PMA addition by fluorescence assay; type: protein-complex assay
Complement factor D = Complement factor D (Homo sapiens, UniProt P00746); experiment: Displacement of Cy5 from recombinant human biotin labeled factor D expressed in Escherichia coli after 2 hrs by TR-FRET assay
Sequence of Complement factor D (P00746 whole entry): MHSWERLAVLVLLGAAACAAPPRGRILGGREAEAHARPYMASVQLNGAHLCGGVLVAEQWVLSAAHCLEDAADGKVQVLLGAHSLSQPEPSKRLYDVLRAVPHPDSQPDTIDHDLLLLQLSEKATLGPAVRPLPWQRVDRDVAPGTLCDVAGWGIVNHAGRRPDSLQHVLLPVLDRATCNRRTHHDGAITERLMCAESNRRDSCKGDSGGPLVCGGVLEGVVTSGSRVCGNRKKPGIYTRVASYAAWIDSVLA

[7] = biological target: T1, C3a anaphylatoxin chemotactic receptor; experiment: Antagonist activity at C3aR in HMDM assessed as inhibition of agonist-induced Ca2+ release; type: functional
[8] = biological target: T1, C3a anaphylatoxin chemotactic receptor; experiment: Agonist activity at C3aR in HMDM assessed as induction of Ca2+ release; type: functional
[9] = Half life in Wistar rat at 10 mg/kg, po or 1 mg/kg, iv; type: ADME, organism-based; details: in vivo
[10] = Oral bioavailability in Wistar rat at 10 mg/kg; type: ADME, organism-based; details: in vivo

Sequence of Complement C3 (P01024 23-667 limits assumed): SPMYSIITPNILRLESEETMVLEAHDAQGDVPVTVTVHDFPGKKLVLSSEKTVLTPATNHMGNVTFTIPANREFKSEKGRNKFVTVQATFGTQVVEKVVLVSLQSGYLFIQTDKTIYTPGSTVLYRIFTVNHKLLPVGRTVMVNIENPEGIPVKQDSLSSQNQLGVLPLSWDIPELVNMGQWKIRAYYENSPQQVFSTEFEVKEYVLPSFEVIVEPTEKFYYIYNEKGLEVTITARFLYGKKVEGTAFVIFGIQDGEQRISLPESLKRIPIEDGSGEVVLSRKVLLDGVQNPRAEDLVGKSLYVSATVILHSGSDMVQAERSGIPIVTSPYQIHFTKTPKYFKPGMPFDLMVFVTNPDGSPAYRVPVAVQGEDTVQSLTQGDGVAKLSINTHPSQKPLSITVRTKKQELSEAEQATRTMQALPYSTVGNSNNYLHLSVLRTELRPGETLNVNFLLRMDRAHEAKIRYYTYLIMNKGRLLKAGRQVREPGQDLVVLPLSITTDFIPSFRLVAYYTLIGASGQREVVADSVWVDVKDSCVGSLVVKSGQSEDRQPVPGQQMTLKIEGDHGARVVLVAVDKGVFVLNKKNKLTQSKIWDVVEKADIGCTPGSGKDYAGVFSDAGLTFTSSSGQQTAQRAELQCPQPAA
Sequence of Complement C3 (P01024 672-1663 limits assumed): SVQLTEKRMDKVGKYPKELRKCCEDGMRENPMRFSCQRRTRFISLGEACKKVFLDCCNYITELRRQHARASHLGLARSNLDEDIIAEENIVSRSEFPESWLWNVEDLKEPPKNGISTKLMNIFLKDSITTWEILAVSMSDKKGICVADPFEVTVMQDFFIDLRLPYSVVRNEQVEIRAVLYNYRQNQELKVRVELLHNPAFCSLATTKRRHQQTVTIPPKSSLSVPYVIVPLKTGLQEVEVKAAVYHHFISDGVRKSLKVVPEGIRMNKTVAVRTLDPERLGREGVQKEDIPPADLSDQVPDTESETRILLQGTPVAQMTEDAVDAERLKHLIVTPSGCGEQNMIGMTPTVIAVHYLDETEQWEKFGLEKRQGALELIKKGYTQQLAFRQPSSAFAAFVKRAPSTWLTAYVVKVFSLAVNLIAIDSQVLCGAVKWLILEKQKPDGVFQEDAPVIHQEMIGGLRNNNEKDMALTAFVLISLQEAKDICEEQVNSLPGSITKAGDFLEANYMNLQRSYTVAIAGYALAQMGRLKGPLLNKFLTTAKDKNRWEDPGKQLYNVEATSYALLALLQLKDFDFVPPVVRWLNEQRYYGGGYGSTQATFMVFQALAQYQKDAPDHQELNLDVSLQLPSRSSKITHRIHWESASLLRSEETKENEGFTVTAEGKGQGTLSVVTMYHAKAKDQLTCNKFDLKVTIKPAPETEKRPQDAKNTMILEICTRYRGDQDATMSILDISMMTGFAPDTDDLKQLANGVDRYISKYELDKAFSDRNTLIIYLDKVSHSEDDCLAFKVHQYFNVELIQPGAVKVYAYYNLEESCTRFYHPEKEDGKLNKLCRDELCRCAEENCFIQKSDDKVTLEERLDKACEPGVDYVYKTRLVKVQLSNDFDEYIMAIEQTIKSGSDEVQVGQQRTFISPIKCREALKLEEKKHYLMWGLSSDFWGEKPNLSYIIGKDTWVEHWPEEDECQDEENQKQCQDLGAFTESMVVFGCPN

Structure (SMILES): CC[C@H](C)[C@H](NC(C)=O)C(=O)N[C@H]1CSSC[C@@H](C(=O)N(C)[C@H](C(N)=O)[C@@H](C)CC)NC(=O)[C@H](CCCNC(=N)N)NC(=O)[C@H](Cc2c[nH]cn2)NC(=O)[C@H](C)NC(=O)CN(C)C(=O)[C@H](Cc2c[nH]c3ccccc23)NC(=O)[C@H](CC(=O)O)NC(=O)[C@H](CCC(N)=O)NC(=O)[C@H](Cc2cn(C)c3ccccc23)NC(=O)[C@H](C(C)C)NC1=O
- IC50 (Complement C3): 62 nM

Structure (SMILES): N=C(N)NCCC[C@H](NC(=O)c1cccn(Cc2ccccc2Br)c1=O)C(=O)O
- IC50 [1]: 50 nM

Structure (SMILES): CC[C@H](C)[C@H](NC(=O)[C@H](CS)NC(=O)[C@@H](NC(=O)[C@@H]1CCCN1C(=O)[C@@H]1CCCN1C(=O)[C@H](Cc1ccc(O)cc1)NC(=O)[C@H](CO)NC(=O)[C@H](CCCNC(=N)N)NC(=O)[C@H](CO)NC(=O)[C@H](CS)NC(=O)[C@H](Cc1ccc(O)cc1)NC(=O)CN)C(C)C)C(=O)N1CCC[C@H]1C(=O)N[C@@H](CC(=O)O)C(=O)O (H-GYCSRSYPPVCIPD-OH)
- IC50 [2]: 2700 nM
- Ki [3]: 180 nM
- IC50 [4]: 220 nM

Structure (SMILES): N=C(N)NCCC[C@@H](C(=O)O)N1Cc2nc(C(c3ccccc3)c3ccccc3)sc2C1=O
- IC50 [7]: 320 nM

Structure (SMILES): N=C(N)NCCC[C@H](Nc1nccc2[nH]c(C(c3ccccc3)c3ccccc3)nc12)C(=O)O
- EC50 [8]: 15 nM

Other lines, results leading:

- IC50 (Integrin alpha-M/beta-2 [5]): 140 nM
- IC50 (Integrin alpha-M/beta-2 [6]): 2500 to 10000 nM
Structure (SMILES): CC[n+]1c(/C=C/C=C/N2CCCc3ccccc32)sc2ccc3ccccc3c21

- IC50 (Complement factor D): 23 nM
Structure (SMILES): Cn1cc(-c2cc(COc3ccccc3CC(=O)O)cc(-c3cccc(CC(N)=O)c3F)c2)cn1

- IC50 (Integrin alpha-M/beta-2 [5]): 330 nM
- IC50 (Integrin alpha-M/beta-2 [6]): 2500 to 10000 nM
Structure (SMILES): CCN1/C(=C/C=C/c2sc3ccccc3[n+]2CC)Sc2ccccc21

- half-life [9]: 1 to 3 h
- bioavailability [10]: 70%
Structure (SMILES): COc1ccc2c(c1)C(C(=O)N(Cc1ccc(N(C)C)cc1)c1ccc(C(C)C)cc1)CCC2 (centres undefined)
